Results taken from patent US4647693A, “Antibiotics DO-248-A and B and process for preparing the same” (Shionogi & Co., Ltd., priority 1984, dated 1987).
Converted amounts (≈) assume the structure as drawn. “Also recorded” adds a separate entry of the source. Read-outs that look alike come from different tables or passages of the source.

Assays:
M. szulgai KMC2401 = assay: MIC, two-fold dilution, Dubos Tween albumin liquid medium; type: cell-based; conditions: 336 h, read-out: minimal inhibitory concentration (MIC)
[1] = tested on: M. intracellulare KMC3209; assay: as above; type: cell-based; conditions: Mycobacterium intracellulare, read-out: minimal inhibitory concentration (MIC)
M. chelonei KMC4201 = assay: as above; type: cell-based; conditions: read-out: minimal inhibitory concentration (MIC)
[2] = tested on: M. avium-intracellulare clinical isolated strain 16; assay: as above; type: cell-based; conditions: 336 h, read-out: minimal inhibitory concentration (MIC)
[3] = tested on: M. nonchromogenicum KMC3602; assay: as above; type: cell-based; conditions: 336 h, read-out: minimal inhibitory concentration (MIC)
[4] = tested on: rifanpicin-resistant strains; assay: Antibacterial activity against resistant strains, in words; type: cell-based
Method: (§1) Fast-acid bacillus (0.01 mg) shown in Table 1 was inoculated into 2.0 ml of Dubos Tween albumin liquid medium and the minimal inhibitory concentration (MIC, μg/ml) of DO-248-A (Compound A), kanamycin (KM) and rifampicin (RFP) was measured by two-fold dilution method. The incubation temperature for Mycobacterium marinum was 28° C. and that for all other microorganisms was 37° C. The judgement was made generally 2 weeks later but 1 week later on M. furtuitum and M. chelonei and 5 weeks later on M. xenopi.

[5] = tested on: kanamycin-resistant strains; assay: as above; type: cell-based
Method: as §1

M. simiae KMC1302 = assay: MIC, two-fold dilution, Dubos Tween albumin liquid medium; type: cell-based; conditions: 336 h, read-out: minimal inhibitory concentration (MIC)
[6] = tested on: fast-acid bacteria including tubercle bacillus; assay: Antibacterial activity against fast-acid (acid-fast) bacteria, in words; type: cell-based; conditions: for antibacterial activity against fast-acid (acid-fast) bacteria: in words
Method: as §1

M. xenopi KMC2301 = assay: MIC, two-fold dilution, Dubos Tween albumin liquid medium; type: cell-based; conditions: Mycobacterium xenopi
Solubility = type: physicochemical
M. avium KMC3101 = assay: MIC, two-fold dilution, Dubos Tween albumin liquid medium; type: cell-based; conditions: Mycobacterium avium, read-out: minimal inhibitory concentration (MIC)
M. gordonae KMC2201 = assay: as above; type: cell-based; conditions: Mycobacterium gordonae, read-out: minimal inhibitory concentration (MIC)
M. tuberculosis H37Rv = assay: as above; type: cell-based; conditions: Mycobacterium tuberculosis, 336 h, 37° C., 2 weeks, read-out: minimal inhibitory concentration (MIC)
Method: as §1

M. bovis BCG = assay: microbe, parasite or virus in culture; type: cell-based; conditions: Mycobacterium tuberculosis variant bovis BCG, 336 h, read-out: minimal inhibitory concentration (MIC)
M. scrofulaceum KMC2102 = assay: MIC, two-fold dilution, Dubos Tween albumin liquid medium; type: cell-based; conditions: Mycobacterium scrofulaceum, read-out: minimal inhibitory concentration (MIC)
M. kansasii KMC1101 = assay: as above; type: cell-based; conditions: Mycobacterium kansasii, read-out: minimal inhibitory concentration (MIC)
[7] = tested on: M. aviumintracellulare, a causative microorganism of refractory atypical fast-acid disease; assay: Comparative antibacterial activity, in words; type: cell-based; conditions: for activity against the pathogenic bacterium of atypical fast-acid bacterium disease relative to kanamycin: compared with kanamycin
M. fortuitum KMC4101 = assay: MIC, two-fold dilution, Dubos Tween albumin liquid medium; type: cell-based; conditions: Mycolicibacterium fortuitum, read-out: minimal inhibitory concentration (MIC)
[8] = M. szulgai KMC2401, 37° C., 2 weeks
[9] = 336 h, M. intracellulare KMC3209, 37° C., 2 weeks
[10] = 168 h, M. chelonei KMC4201, 37° C., 1 week
[11] = M. avium-intracellulare clinical isolated strain 16, 37° C., 2 weeks
[12] = M. nonchromogenicum KMC3602, 37° C., 2 weeks
[13] = M. simiae KMC1302, 37° C., 2 weeks
[14] = M. xenopi KMC2301, 37° C., 5 weeks, read-out: minimal inhibitory concentration (MIC)
[15] = 336 h, M. avium KMC3101, 37° C., 2 weeks
[16] = 336 h, M. gordonae KMC2201, 37° C., 2 weeks
[17] = 336 h, M. scrofulaceum KMC2102, 37° C., 2 weeks
[18] = 336 h, M. kansasii KMC1101, 37° C., 2 weeks
[19] = 168 h, M. fortuitum KMC4101, 37° C., 1 week

Compound | MIC (M. szulgai KMC2401; [8]) [µg/mL] | MIC [1, 9] [µg/mL] | MIC (M. chelonei KMC4201; [10]) [µg/mL] | MIC [2, 11] [µg/mL] | MIC [3, 12] [µg/mL] | effectiveness against rifanpicin-resistant strains [4] | effectiveness against kanamycin-resistant strains [5] | MIC (M. simiae KMC1302; [13]) [µg/mL] | antibacterial activity against fast-acid (acid-fast) bacteria [6] | MIC (M. xenopi KMC2301; [14]) [µg/mL] | MIC (M. avium KMC3101; [15]) [µg/mL] | MIC (M. gordonae KMC2201; [16]) [µg/mL] | MIC (M. tuberculosis H37Rv) [µg/mL] | MIC (M. bovis BCG) [µg/mL] | MIC (M. scrofulaceum KMC2102; [17]) [µg/mL] | MIC (M. kansasii KMC1101; [18]) [µg/mL] | activity against the pathogenic bacterium of atypical fast-acid bacterium disease relative to kanamycin [7] | MIC (M. fortuitum KMC4101; [19]) [µg/mL] | other results
CC(C)c1c(O)cc(C(NC(=N)N)C(=O)NCC(=O)O)cc1O (stereo not drawn) [DO-248-A, N-(α-guanidino-3,5-dihydroxy-4-isopropylphenylacetyl)glycine] | 3.13 (≈ 9.65 µM) | 0.025 (≈ 0.0771 µM) | > 25 | 0.1 (≈ 0.308 µM) | 12.5 (≈ 38.5 µM) | effective; also recorded: have antibacterial activity | effective; also recorded: have antibacterial activity | 6.25 (≈ 19.3 µM) | effective; also recorded: have antibacterial activity | 0.39 (≈ 1.2 µM) | 0.78 (≈ 2.4 µM) | 0.00625 (≈ 0.0193 µM) | 0.05 (≈ 0.154 µM) | 0.05 (≈ 0.154 µM) | 0.2 (≈ 0.617 µM) | 0.00313 (≈ 0.00965 µM) | more active | > 25 | Solubility (Solubility; in acetone): slightly soluble; Solubility (Solubility; in benzene): insoluble; Solubility (Solubility; in chloroform): slightly soluble; Solubility (Solubility; in dimethylformamide): readily soluble; Solubility (Solubility; in ethanol): readily soluble; Solubility (Solubility; in ether): insoluble; Solubility (Solubility; in ethylacetate): slightly soluble; Solubility (Solubility; in hexane): insoluble; Solubility (Solubility; in methanol): readily soluble; Solubility (Solubility; in water): soluble; effectiveness against M. aviumintracellulare relative to kanamycin and rifanpicin ([7]; compared with kanamycin and rifanpicin): more effective
CCc1c(O)cc(C(NC(=N)N)C(=O)NCC(=O)O)cc1O (stereo not drawn) [DO-248-B, N-(α-guanidino-3,5-dihydroxy-4-ethylphenylacetyl)glycine] | – | – | – | – | – | have antibacterial activity | have antibacterial activity | – | effective; also recorded: have antibacterial activity | – | – | – | – | – | – | – | more active | – | effectiveness relative to DO-248-A ([6]; compared with DO-248-A): as effective as DO-248-A
NC[C@H]1O[C@H](O[C@H]2[C@H](O)[C@@H](O[C@H]3O[C@H](CO)[C@@H](O)[C@H](N)[C@H]3O)[C@H](N)C[C@@H]2N)[C@H](O)[C@@H](O)[C@@H]1O [KM, kanamycin] | – | – | – | – | – | – | – | – | – | – | – | – | 0.025 (≈ 0.0516 µM) | 0.00156 (≈ 0.00322 µM) | – | – | – | – | MIC (M. szulgai KMC2401): 1.56 µg/mL (≈ 3.22 µM); MIC ([1]; KMC3209, 336 h): 0.05 µg/mL (≈ 0.103 µM); MIC (M. chelonei KMC4201; KMC4201, 168 h): > 25 µg/mL; MIC [2]: 6.25 µg/mL (≈ 12.9 µM); MIC [3]: > 25 µg/mL; MIC (M. simiae KMC1302): 12.5 µg/mL (≈ 25.8 µM); MIC (M. xenopi KMC2301; KMC2301, read-out: minimal inhibitory concentration (MIC)): 0.1 µg/mL (≈ 0.206 µM); MIC (M. avium KMC3101; KMC3101, 336 h): 3.13 µg/mL (≈ 6.46 µM); MIC (M. gordonae KMC2201; KMC2201, 336 h): 0.39 µg/mL (≈ 0.805 µM); MIC (M. scrofulaceum KMC2102; KMC2102, 336 h): 0.0125 µg/mL (≈ 0.0258 µM); MIC (M. kansasii KMC1101; KMC1101, 336 h): 6.25 µg/mL (≈ 12.9 µM); MIC (M. fortuitum KMC4101; KMC4101, 168 h): 25 µg/mL (≈ 51.6 µM)
CO[C@H]1/C=C/O[C@@]2(C)Oc3c(C)c(O)c4c(O)c(c(/C=N/N5CCN(C)CC5)c(O)c4c3C2=O)NC(=O)/C(C)=C\C=C\[C@H](C)[C@H](O)[C@@H](C)[C@@H](O)[C@@H](C)[C@H](OC(C)=O)[C@@H]1C [RFP, rifampicin] | 0.025 (≈ 0.0304 µM) | < 0.001 | 6.25 (≈ 7.59 µM) | 3.13 (≈ 3.8 µM) | 25 (≈ 30.4 µM) | – | – | > 25 | – | 0.00625 (≈ 0.00759 µM) | 0.2 (≈ 0.243 µM) | 0.0125 (≈ 0.0152 µM) | < 0.001 | < 0.001 | 0.00313 (≈ 0.0038 µM) | 0.0125 (≈ 0.0152 µM) | – | 3.13 (≈ 3.8 µM) | –
